Reference: patent US20040171627A1, “Treatment of renal fibrosis” (Hadasit, priority 2001, published 2004)
Several values for one entry are separate records, joined by “and”; a condition that tells them apart may be missing. Equal values may be shown once. Entries after “also recorded” stand apart in the source; their conditions may differ.

Assays:
[1] = system: RMR rats (5/6 nephrectomy); test: Protein concentration in urine (proteinuria) of RMR rats; format: in vivo, Male Wistar rats; conditions: halofuginone 0.2 mg/kg/day oral, statistically significant from week 5 post-nephrectomy on (FIG. 2)
Method: Male Wistar rats (weighing 300±30 g at the start of the experiment) were used in this study. They were allowed to acclimatize to their environment for one week. Rats were assigned to undergo renal mass reduction (RMR) by 5/6 nephrectomy or Sham operation, under anesthesia with intraperitoneal injection of pentobarbital (35 mg/kg body weight). RMR was performed by ligature of 2 of 3 major branches of the left renal artery and right nephrectomy in the same session. Sham rats have undergone exposition of the kidneys and removal of the peri-renal fat. After 24 hours recovery the rats were assigned to one of the following groups: 1) Group I: RMR rats, oral gavage with halofuginone 0.2 mg/kg/day started 24 hours post surgery. 2) Group II: RMR rats, oral gavage with normal saline daily, started 24 hours post surgery. 3) Group III: age matched, sham operated rats served as the controls. […] Every week, systolic blood pressure was measured by tail cuff manometry and urine samples were collected individually in metabolic cages for determination of total protein and creatinine excretion. Protein concentration in urine was determined by a colorimetric method using pyrogallol-red molybdate complex (cobas integra 700, Roche). Body weight was also measured. […] Serum creatinine was measured with a Hitachi model 747 autoanalyzer, using the kinetic Jaffe method.

[2] = system: RMR rats (5/6 nephrectomy), renal fibrosis; test: Light microscopy of kidneys after 5/6 nephrectomy (RMR) in rats, semi-quantitative histological evaluation; format: in vivo, Male Wistar rats
Method: A solution of halofuginone was prepared by dissolution of powder of halofuginone hydrobromide in aqueous media containing suitable buffer. Male Wistar rats (weighing 300±30 g at the start of the experiment) were used in this study after being allowed to acclimatize to their environment for one week. Rats were assigned to undergo renal mass reduction (RMR) by 5/6 nephrectomy or sham operation, under anesthesia with intraperitoneal injection of pentobarbital (35 mg/kg body weight). RMR was performed by ligature of 2 of 3 major branches of the left renal artery and right nephrectomy in the same session. Sham rats undergo exposure of the kidneys and removal of the peri-renal fat, without undergoing RMR. After 24 hours recovery of the rats were assigned to one of the following groups: 1) Group I: RMR rats, oral gavage with halofuginone 0.2 mg/kg/day started 24 hours post surgery. 2) Group II: RMR rats, oral gavage with normal saline daily, started 24 hours post surgery. 3) Group III: age matched, sham operated rats served as the controls. All animals were allowed free access to a standard diet and water ad libitum. At sacrifice (10 weeks after RMR), kidneys were removed and processed for in situ hybridization, immunohistochemistry and histological evaluation. Light microscopy studies: specimens were fixed in 10% buffered formaldehyde and embedded in paraffin. Histological sections of 4-5μ thickness were stained with hematoxylin-eosin (HES), periodic acid Schiff (PAS) and Masson trichrome (light green). A semi-quantitative score was used to evaluate the degree of glomerulosclerosis, mesangial expansion and proliferation and tubulo-interstitial changes. A minimum of 30 glomeruli in each specimen was examined and the severity of the lesions was graded from 0 to 4+, according to the percentage of glomerular involvement. […] An injury score was obtained by multiplying the degree of damage (0-4+) by the percentage of glomeruli with the same degree of lesions. The evaluation of tubulointerstitial fibrosis was performed with the point-counting method using a Zeiss I integrating eyepiece.

Question: Which results are given for O=C(CC1NCCC[C@H]1O)Cn1cnc2cc(Br)c(Cl)cc2c1=O (stereo in doubt) [Halofuginone, 7-bromo-6-chloro-3-[3-(3-hydroxy-2-piperidinyl)-2-oxopropyl]-4(3H)-quinazolinone]?
Answer: levels of proteinuria versus control nephrectomized group [1]: lower levels of proteinuria; tubulointerstitial fibrosis compared to the control group ([2]; halofuginone 0.2 mg/kg/day oral, RMR rats, 10 weeks): significant decrease; presence of glomerulosclerosis and mesangial proliferation ([2]; halofuginone 0.2 mg/kg/day oral, RMR rats, 10 weeks, versus control): less accentuated; Tubules ([2]; individual rats of Group I, halofuginone 0.2 mg/kg/day oral gavage, 10 weeks after RMR, light microscopy): Normal; also recorded: Few atrophic; Glomerulus Proliferation ([2]; individual rats of Group I, halofuginone 0.2 mg/kg/day oral gavage, 10 weeks after RMR, light microscopy (preliminary results)): Mild (4×) and Moderate (2×); Glomerulus Sclerosis ([2]; individual rats of Group I, halofuginone 0.2 mg/kg/day oral gavage, 10 weeks after RMR, light microscopy, graded 0 to 4+): 0
